Values after ≈ are worked out from the molar mass of the structure shown.
What was measured:
Assay type in all cases: functional
HEL [1] = test: Compound was tested in vitro for Minimum inhibitory concentration required to reduce VZV TK+(OKA) induced cytopathicity in HEL cells; conditions: Homo sapiens
HEL [2] = test: Minimum inhibitory concentration required to reduce VZV TK-(07-1) induced cytopathicity in HEL cells; conditions: Homo sapiens
HEL [3] = test: Compound was tested in vitro for Minimum inhibitory concentration required to reduce VZV TK-(YS/R) induced cytopathicity in HEL cells; conditions: Homo sapiens
HEL [4] = test: Compound was tested in vitro for Minimum inhibitory concentration required to reduce CMV(Davis) induced cytopathicity in HEL cells; conditions: Homo sapiens
HEL [5] = test: Compound was tested in vitro for Minimum inhibitory concentration required to reduce CMV(AD-169) induced cytopathicity in HEL cells; conditions: Homo sapiens
HEL [6] = test: Compound was tested in vitro for Minimum inhibitory concentration required to reduce VZV TK+(YS) induced cytopathicity in HEL cells; conditions: Homo sapiens
HEL [7] = test: Compound was tested in vitro for Minimum inhibitory concentration required to reduce VZV TK-(07-1) induced cytopathicity in HEL cells; conditions: Homo sapiens
MT4 [8] = test: Compound was tested in vitro for Minimum inhibitory concentration required to reduce CMV(Davis) induced cytopathicity in Human MT-4 cells
MT4 [9] = test: Compound was tested in vitro for Minimum inhibitory concentration required to reduce VZV TK+(OKA) induced cytopathicity in Human MT-4 cells
MT4 [10] = test: Compound was tested in vitro for Minimum inhibitory concentration required to reduce CMV(AD-169) induced cytopathicity in Human MT-4 cells
MT4 [11] = test: Compound was tested in vitro for Minimum inhibitory concentration required to reduce VZV TK+(YS) induced cytopathicity in Human MT-4 cells
MT4 [12] = test: Compound was tested in vitro for Minimum inhibitory concentration required to reduce VZV TK-(YS/R) induced cytopathicity in Human MT-4 cells
MT4 [13] = test: Compound was tested in vitro for Minimum inhibitory concentration required to reduce HSV-1 TK-(B2006) induced cytopathicity in Human MT-4 cells
MT4 [14] = test: Compound was tested in vitro for Minimum inhibitory concentration required to reduce HSV-2(ROD) induced cytopathicity in Human MT-4 cells
MT4 [15] = test: Compound was tested in vitro for minimum inhibitory concentration required to reduce HSV-1(KOS) induced cytopathicity in Human MT-4 cells
MT4 [16] = test: Compound was tested in vitro for Minimum inhibitory concentration required to reduce HSV-1(IIIb) induced cytopathicity in Human MT-4 cells
MT4 [17] = test: Minimum inhibitory concentration required to reduce VZV TK-(07-1) induced cytopathicity in Human MT-4 cells
C3H/3T3 = test: Compound was tested in vitro for Minimum inhibitory concentration required to reduce MSV induced cytopathicity in murine C3H/3T3 embryo fibroblasts; conditions: Mus musculus
E6SM = test: Compound was tested in vitro for minimum inhibitory concentration required to reduce HSV-1(KOS) induced cytopathicity in E6SM cells; conditions: Homo sapiens
HEL [18] = test: Compound was tested in vitro for Minimum inhibitory concentration required to reduce CMV (AD-169) induced cytopathicity in HEL cells; conditions: Homo sapiens

Compound | MIC (HEL [1]) | MIC (HEL [2]) | MIC (HEL [3]) | MIC (HEL [4]) | MIC (HEL [5]) | MIC (HEL [6]) | MIC (MT4 [8]) | MIC (MT4 [9]) | MIC (MT4 [10]) | MIC (MT4 [11]) | MIC (MT4 [12]) | further results
Nc1ncnc2c1ncn2CC(CNC(=O)c1ccccc1C(=O)O)OCP(=O)(O)O (stereo unspecified) | > 50000 µg/mL | > 50000 µg/mL | > 50000 µg/mL | > 50000 µg/mL | > 50000 µg/mL | > 50000 µg/mL | – | – | – | – | – | –
C[N+](C)(C)CC(Cn1cnc2c(N)ncnc21)OCP(=O)(O)O (stereo unspecified) | > 50000 µg/mL | – | – | > 50000 µg/mL | > 50000 µg/mL | > 50000 µg/mL | – | – | – | – | – | MIC (HEL [7]): > 50000 µg/mL
Nc1nc(N)c2ncn(CC(CNC(=O)c3ccccc3C(=O)O)OCP(=O)(O)O)c2n1 (stereo unspecified) | > 50000 µg/mL | > 50000 µg/mL | > 50000 µg/mL | > 50000 µg/mL | > 50000 µg/mL | > 50000 µg/mL | – | – | – | – | – | –
NCC(Cn1cnc2c(N)ncnc21)OCP(=O)(O)O (stereo unspecified) | – | – | – | – | – | – | 35 µg/mL (≈ 116 µM) | 11 µg/mL (≈ 36.4 µM) | 15 µg/mL (≈ 49.6 µM) | 7 µg/mL (≈ 23.2 µM) | 7 µg/mL (≈ 23.2 µM) | –
Nc1ncnc2c1ncn2CCOCP(=O)(O)O [ADEFOVIR] | – | – | – | – | – | – | 29 µg/mL (≈ 106 µM) | 25 µg/mL (≈ 91.5 µM) | 28 µg/mL (≈ 102 µM) | 31 µg/mL (≈ 113 µM) | 14 µg/mL (≈ 51.2 µM) | MIC (MT4 [13]): 20 µg/mL (≈ 73.2 µM); MIC (MT4 [14]): 1.5 µg/mL (≈ 5.49 µM); MIC (MT4 [15]): 7 µg/mL (≈ 25.6 µM); MIC (MT4 [16]): 1.5 µg/mL (≈ 5.49 µM); MIC (MT4 [17]): 14 µg/mL (≈ 51.2 µM)
C[N+](C)(C)CC(Cn1cnc2c(O)nc(N)nc21)OCP(=O)(O)O (stereo unspecified) | > 50000 µg/mL | – | – | – | > 50000 µg/mL | > 50000 µg/mL | – | – | – | – | – | –
Nc1ncnc2c1ncn2CC(CN1CCOCC1)OCP(=O)(O)O (stereo unspecified) | > 50000 µg/mL | > 50000 µg/mL | > 50000 µg/mL | > 50000 µg/mL | > 50000 µg/mL | > 50000 µg/mL | – | – | – | – | – | MIC (C3H/3T3): 25000 µg/mL (≈ 67100 µM); MIC (E6SM): 70000 µg/mL (≈ 188000 µM)
CN(C)CC(Cn1cnc2c(N)ncnc21)OCP(=O)(O)O (stereo unspecified) | > 20000 µg/mL | > 20000 µg/mL | > 20000 µg/mL | > 20000 µg/mL | > 20000 µg/mL | > 20000 µg/mL | – | – | – | – | – | –
C[N+](C)(C)CC(Cn1cnc2c(N)nc(N)nc21)OCP(=O)(O)O (stereo unspecified) | – | – | – | – | – | > 50000 µg/mL | – | – | – | – | – | MIC (HEL [18]): > 50000 µg/mL
Nc1ncnc2c1ncn2C[C@@H](CO)OCP(=O)(O)O | – | – | – | – | – | – | 0.2 µg/mL (≈ 0.66 µM) | 0.03 µg/mL (≈ 0.0989 µM) | 0.15 µg/mL (≈ 0.495 µM) | 0.05 µg/mL (≈ 0.165 µM) | 0.01 µg/mL (≈ 0.033 µM) | MIC (MT4 [13]): 0.1 µg/mL (≈ 0.33 µM); MIC (MT4 [14]): > 20 µg/mL; MIC (MT4 [15]): 0.2 µg/mL (≈ 0.66 µM); MIC (MT4 [16]): > 20 µg/mL; MIC (MT4 [17]): 0.04 µg/mL (≈ 0.132 µM)
